Test results published in patent US20230167103A1 (Bayer Aktiengesellschaft, priority 2020, published 2023).

Molecular target: T1, human DGKζ (Homo sapiens, UniProt Q13574)
T1 construct: made in house; host or cells: Sf9 insect cells, baculovirus
Assay: Human DGKζ kinase activity inhibition assay (ADP-Glo)
Format: biochemical
Conditions: example compounds; recombinant full-length human DGKζ, 1,2-dioleoyl-sn-glycerol 7 μM, ATP 55 μM, 20 min at 22° C.; read-out: IC50 values of examples in in vitro human DGKζ kinase activity inhibition assays
Experimental: Human diacylglycerol kinase zeta (DGKζ) inhibitory activity of compounds of the present invention was quantified employing the human DGKζ kinase activity assay as described in the following paragraphs. In essence, the enzyme activity was measured by quantification of the adenosine-di-phosphate (ADP) generated as a co-product of the enzyme reaction via the “ADP-Glo™ Kinase Assay” kit from the company Promega. This detection system works as follows: In a first step the adenosine-tri-phosphate (ATP) not consumed in the kinase reaction is quantitatively converted to cyclic adenosine-mono-phosphate (cAMP) employing an adenylate cyclase (“ADP-Glo-reagent”), then the adenylate cyclase is stopped and the ADP generated in the kinase reaction is converted to ATP, which subsequently generates in a luciferase-based reaction a glow-luminescence signal (“Kinase Detection Reagent”).
C-terminally FLAG-tagged, recombinant full-length human DGKζ (inhouse expressed in baculovirus infected insect cells, purified using anti-Flag pulldown and size exclusion chromatography) was used as enzyme. As an alternative, commercially available enzyme by Carnabio can be used. As substrate for the kinase, 1,2-dioleoyl-sn-glycerol, reconstituted in octyl-β-D-glucopyranoside micelles, was used. […] Subsequently, 22.55 volumes of a 510 mM solution of octyl-β-D-glucopyranoside (Sigma-Aldrich, Cat. #O8001-10G) in 50 mM MOPS buffer (pH 7.4) were added, and the mixture was sonicated in an ultrasonic bath for 20 s. Then 35 volumes of 50 mM MOPS buffer (pH 7.4) were added to yield a solution of 0.28 mM 1,2 dioleoyl-sn-glycerol and 200 mM octyl-β-D-glucopyranoside, which was aliquoted, flash-frozen in liquid nitrogen, and stored at −20° C. until use.
For the assay 50 nl of a 100-fold concentrated solution of the test compound in dimethyl sulfoxide (DMSO, Sigma) was pipetted into either a white 1536-well or a white low-volume 384-well microtiter plate (both Greiner Bio-One, Frickenhausen, Germany). […] The concentration of DGKζ was adjusted depending of the activity of the enzyme lot and was chosen appropriate to have the assay in the linear range, a typical concentration is about 0.1 nM. The reaction was stopped by the addition of 2.5 μL of “ADP-Glo-reagent” (1 to 1.5 diluted with water) and the resulting mixture was incubated at 22° C. for 1 h to convert the ATP not consumed in the kinase reaction completely to cAMP. Subsequently 2.5 μl of the “kinase detection reagent” (1.2 fold more concentrated than recommended by the producer) were added, the resulting mixture was incubated at 22° C. for 1 h and then the luminescence measured with a suitable measurement instrument (e.g. Viewlux™ from Perkin-Elmer). The amount of emitted light was taken as a measure for the amount of ADP generated and thereby for the activity of the DGKζ.
The data were normalised (enzyme reaction without inhibitor=0% inhibition, all other assay components but no enzyme=100% inhibition).

T1 sequence (Q13574 with tags, fused parts or gaps): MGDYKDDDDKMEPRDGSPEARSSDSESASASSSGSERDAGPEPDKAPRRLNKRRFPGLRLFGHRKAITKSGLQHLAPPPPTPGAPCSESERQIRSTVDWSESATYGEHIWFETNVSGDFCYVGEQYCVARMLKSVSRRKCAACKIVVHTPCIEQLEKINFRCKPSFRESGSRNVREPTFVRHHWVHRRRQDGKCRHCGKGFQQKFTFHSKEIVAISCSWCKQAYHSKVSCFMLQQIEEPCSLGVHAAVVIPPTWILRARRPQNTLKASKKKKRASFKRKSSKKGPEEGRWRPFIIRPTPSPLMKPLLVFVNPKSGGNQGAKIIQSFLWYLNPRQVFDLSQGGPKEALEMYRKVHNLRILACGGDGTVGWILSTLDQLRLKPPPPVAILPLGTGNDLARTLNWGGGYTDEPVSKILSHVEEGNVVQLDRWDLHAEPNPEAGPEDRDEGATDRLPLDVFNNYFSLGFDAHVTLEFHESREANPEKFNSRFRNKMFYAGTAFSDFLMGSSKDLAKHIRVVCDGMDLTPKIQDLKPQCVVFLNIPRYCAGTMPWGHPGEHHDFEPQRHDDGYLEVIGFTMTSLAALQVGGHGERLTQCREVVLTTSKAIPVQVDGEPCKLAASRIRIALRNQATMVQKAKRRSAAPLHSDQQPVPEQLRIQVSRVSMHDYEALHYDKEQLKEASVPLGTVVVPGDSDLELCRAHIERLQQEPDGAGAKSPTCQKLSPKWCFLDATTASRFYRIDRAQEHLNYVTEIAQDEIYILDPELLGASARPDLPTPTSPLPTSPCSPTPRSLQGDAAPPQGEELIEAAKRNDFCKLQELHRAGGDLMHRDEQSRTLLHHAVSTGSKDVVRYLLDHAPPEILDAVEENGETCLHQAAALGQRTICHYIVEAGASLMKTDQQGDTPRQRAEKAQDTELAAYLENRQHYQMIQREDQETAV

IC50 [nM] | SMILES
10 | CC(C(N)=O)N(c1ccc(F)cc1)c1nc(N)c(C(=O)c2cc(CN3CCC(F)(F)C(C)C3)no2)s1 (mixture of isomers) [Example 76, 2-(N-[4-amino-5-[3-[(4,4-difluoro-3-methyl-1-piperidyl)methyl]isoxazole-5-carbonyl]thiazol-2-yl]-4-fluoro-anilino)propanamide]
242 | CC(C(N)=O)N(c1ccc(F)cc1)c1nc(N)c(C(=O)c2cc(CN3CCC(F)C3)no2)s1 (mixture of isomers) [Example 77, 2-(N-[4-amino-5-[3-[(3-fluoropyrrolidin-1-yl)methyl]isoxazole-5-carbonyl]thiazol-2-yl]-4-fluoro-anilino)propanamide]
9 | CC(C(N)=O)N(c1ccc(F)cc1)c1nc(N)c(C(=O)c2nc(-c3ccc(Cl)cc3)no2)s1 (racemic) [Example 1, rac-2-(N-[4-amino-5-[3-(4-chlorophenyl)-1,2,4-oxadiazole-5-carbonyl]thiazol-2-yl]-4-fluoro-anilino)propanamide]
27 | CC(C(N)=O)N(c1ccc(F)cc1)c1nc(N)c(C(=O)c2cc(OCc3ccccc3)no2)s1 (racemic) [Example 2, rac-2-(N-[4-amino-5-(3-benzyloxyisoxazole-5-carbonyl)thiazol-2-yl]-4-fluoro-anilino)propanamide]
104 | CC(C(N)=O)N(c1ccc(F)cc1)c1nc(N)c(C(=O)c2cc(-c3ccccc3)no2)s1 (racemic) [Example 3, rac-2-(N-[4-amino-5-(3-phenylisoxazole-5-carbonyl)thiazol-2-yl]-4-fluoro-anilino)propanamide]
37 | CC(C(N)=O)N(c1ccc(F)cc1)c1nc(N)c(C(=O)c2cc(-c3ccc(Cl)cc3Cl)no2)s1 (racemic) [Example 4, rac-2-(N-[4-amino-5-[3-(2,4-dichlorophenyl)isoxazole-5-carbonyl]thiazol-2-yl]-4-fluoro-anilino)propanamide]
67 | CC(C(N)=O)N(c1ccc(F)cc1)c1nc(N)c(C(=O)c2cc(-c3ccc(Cl)cc3)no2)s1 (racemic) [Example 5, rac-2-(N-[4-amino-5-[3-(4-chlorophenyl)isoxazole-5-carbonyl]thiazol-2-yl]-4-fluoro-anilino)propanamide]
123 | CC(C(N)=O)N(c1ccc(F)cc1)c1nc(N)c(C(=O)c2cc(Br)no2)s1 (racemic) [Example 6, rac-2-(N-[4-amino-5-(3-bromoisoxazole-5-carbonyl)thiazol-2-yl]-4-fluoro-anilino)propanamide]
407 | CC(C(N)=O)N(c1ccc(F)cc1)c1nc(N)c(C(=O)c2cc(-c3cccnc3)no2)s1 (racemic) [Example 7, rac-2-(N-[4-amino-5-[3-(3-pyridyl)isoxazole-5-carbonyl]thiazol-2-yl]-4-fluoro-anilino)propanamide]
728 | CC(C(N)=O)N(c1ccc(F)cc1)c1nc(N)c(C(=O)c2cc(-c3ccncc3)no2)s1 (racemic) [Example 8, rac-2-(N-[4-amino-5-[3-(4-pyridyl)isoxazole-5-carbonyl]thiazol-2-yl]-4-fluoro-anilino)propanamide]
189 | CCOC(=O)c1cc(C(=O)c2sc(N(c3ccc(F)cc3)C(C)C(N)=O)nc2N)on1 (racemic) [Example 9, rac-Ethyl 5-[4-amino-2-(N-(2-amino-1-methyl-2-oxo-ethyl)-4-fluoro-anilino)thiazole-5-carbonyl]isoxazole-3-carboxylate]
23 | CC(C(N)=O)N(c1ccc(F)cc1)c1nc(N)c(C(=O)c2cc(C(=O)Nc3ccccc3)no2)s1 (racemic) [Example 10, rac-5-[4-amino-2-(N-(2-amino-1-methyl-2-oxo-ethyl)-4-fluoro-anilino)thiazole-5-carbonyl]-N-phenyl-isoxazole-3-carboxamide]
2360 | CC(C(N)=O)N(c1ccc(F)cc1)c1nc(N)c(C(=O)c2cc(C(=O)N[C@@H]3C[C@@H]3F)no2)s1 (mixture of isomers) [Example 11, 5-[4-amino-2-(N-(2-amino-1-methyl-2-oxo-ethyl)-4-fluoro-anilino)thiazole-5-carbonyl]-N-[(cis)-2-fluorocyclopropyl]isoxazole-3-carboxamide]
938 | CC(C(N)=O)N(c1ccc(F)cc1)c1nc(N)c(C(=O)c2cc(C(=O)Nc3cnn(C)c3)no2)s1 (racemic) [Example 12, rac-5-[4-amino-2-(N-(2-amino-1-methyl-2-oxo-ethyl)-4-fluoro-anilino)thiazole-5-carbonyl]-N-(1-methylpyrazol-4-yl)isoxazole-3-carboxamide]
977 | CC(C(N)=O)N(c1ccc(F)cc1)c1nc(N)c(C(=O)c2cc(C(=O)N3CCOCC3)no2)s1 (racemic) [Example 13, rac-2-(N-[4-amino-5-[3-(morpholine-4-carbonyl)isoxazole-5-carbonyl]thiazol-2-yl]-4-fluoro-anilino)propanamide]
565 | CC(C(N)=O)N(c1ccc(F)cc1)c1nc(N)c(C(=O)c2cc(C(=O)NC3CC3)no2)s1 (racemic) [Example 15, rac-5-[4-amino-2-(N-(2-amino-1-methyl-2-oxo-ethyl)-4-fluoro-anilino)thiazole-5-carbonyl]-N-cyclopropyl-isoxazole-3-carboxamide]
420 | CC(C(N)=O)N(c1ccc(F)cc1)c1nc(N)c(C(=O)c2cc(C(=O)Nc3ccncc3)no2)s1 (racemic) [Example 16, rac-5-[4-amino-2-(N-(2-amino-1-methyl-2-oxo-ethyl)-4-fluoro-anilino)thiazole-5-carbonyl]-N-(4-pyridyl)isoxazole-3-carboxamide]
699 | CC(C(N)=O)N(c1ccc(F)cc1)c1nc(N)c(C(=O)c2cc(C(=O)NCC(F)F)no2)s1 (racemic) [Example 17, rac-5-[4-amino-2-(N-(2-amino-1-methyl-2-oxo-ethyl)-4-fluoro-anilino)thiazole-5-carbonyl]-N-(2,2-difluoroethyl)isoxazole-3-carboxamide]
492 | CC(C(N)=O)N(c1ccc(F)cc1)c1nc(N)c(C(=O)c2cc(C(=O)N3CCC3)no2)s1 (racemic) [Example 18, rac-2-(N-[4-amino-5-[3-(azetidine-1-carbonyl)isoxazole-5-carbonyl]thiazol-2-yl]-4-fluoro-anilino)propanamide]
315 | CC(C(N)=O)N(c1ccc(F)cc1)c1nc(N)c(C(=O)c2cc(C(=O)N3CCCC3)no2)s1 (racemic) [Example 19, rac-2-(N-[4-amino-5-[3-(pyrrolidine-1-carbonyl)isoxazole-5-carbonyl]thiazol-2-yl]-4-fluoro-anilino)propanamide]
300 | CC(C(N)=O)N(c1ccc(F)cc1)c1nc(N)c(C(=O)c2cc(C(=O)Nc3cccnc3)no2)s1 (racemic) [Example 20, rac-5-[4-amino-2-(N-(2-amino-1-methyl-2-oxo-ethyl)-4-fluoro-anilino)thiazole-5-carbonyl]-N-(3-pyridyl)isoxazole-3-carboxamide]
293 | CC(C(N)=O)N(c1ccc(F)cc1)c1nc(N)c(C(=O)c2cc(C(=O)NC3CCC3)no2)s1 (racemic) [Example 21, rac-5-[4-amino-2-(N-(2-amino-1-methyl-2-oxo-ethyl)-4-fluoro-anilino)thiazole-5-carbonyl]-N-cyclobutyl-isoxazole-3-carboxamide]
182 | CC(C(N)=O)N(c1ccc(F)cc1)c1nc(N)c(C(=O)c2cc(C(=O)NCC3CC3)no2)s1 (racemic) [Example 22, rac-5-[4-amino-2-(N-(2-amino-1-methyl-2-oxo-ethyl)-4-fluoro-anilino)thiazole-5-carbonyl]-N-(cyclopropylmethyl)isoxazole-3-carboxamide]
212 | CC(C(N)=O)N(c1ccc(F)cc1)c1nc(N)c(C(=O)c2cc(C(=O)NCC(F)(F)F)no2)s1 (racemic) [Example 23, rac-5-[4-amino-2-(N-(2-amino-1-methyl-2-oxo-ethyl)-4-fluoro-anilino)thiazole-5-carbonyl]-N-(2,2,2-trifluoroethyl)isoxazole-3-carboxamide]
